Measured values reported in patent publication US10562902B2, “IRAK4 inhibitor and use thereof” (BEIJING HANMI PHARMACEUTICAL CO., LTD., priority 2015, dated 2020).

Experiments:
[1] = biological target: IRAK4 kinase (Homo sapiens (Human), UniProt Q9NWZ3); assay: IRAK4 kinase activity inhibition assay; assay type: biochemical; details: ADP-Glo kinase assay, 10 μM ATP, MBP substrate
Protocol: IRAK4 kinase (purchased from Life Technologies, Cat. No.: PR5612U) was diluted to 2 folds of the final concentration (the final concentration is […]) with reaction buffer (40 mM Tris-HC1, pH 7.5; 20 mM MgCl2; 0.1 mg/mL BSA; 1 mM DTT), and added to a 384-well plate at 5 μL/well. The test drugs were 10-fold serial diluted from 10 μM to set six concentration points and added to the test wells of the 384-well plate at 2.5 μL/well. After incubation for 10 min at 25° C., 10 μM of ATP and 0.1 μg/μL of an enzyme reaction substrate, myelin basic protein MBP (purchased from Signal Chem, Cat. No.: M42-51N) were added at 2.5 μL/well, and reacted at 25° C. for 60 minutes. After the reaction was completed, the kinase activity assay was performed using the ADP-Glo™ kinase assay kit (purchased from Promega, Cat. No.: V9102) according to the manufacture's instruction, i.e., 10 μL of ADP-Glo reaction reagent was first added and reacted at 25° C. for 40 minutes, 10 μL of the reaction mixture was taken and mixed with 10 μL of ADP-Glo detection reagent, and reacted at 25° C. for 30 minutes. The kinase activity was then detected, and the IC50 values of the test drugs were calculated.

[2] = tested on: TMD-8 cells; assay: TMD-8 cell growth inhibition assay; assay type: cell-based; details: Homo sapiens, TMD8, 96 hours, CCK-8
Protocol: The compound of Example 64 and the compound of Example 74 of the invention were tested in TMD-8 cell growth inhibition assay. TMD-8 cells (available from Korea Hanmi Research Center) were cultured in RMPI-1640 medium (purchased from Gibco, Cat. No.: 22440) containing 10% fetal bovine serum (purchased from Gibco, Cat. No.: 10099-141). The TMD-8 cells in logarithmic growth phase were seeded in a 96-well plate at 20,000 cells/well/100 μL, and RMPI-1640 medium (100 μL) was added into blank control wells. The test samples were diluted with RMPI-1640 medium to 2 folds of the final concentration (10-fold dilutions starting from 10 μM, setting 6 drug concentrations, and testing in replicate wells at each concentration). The diluted test samples were added to test wells seeded with cells at 100 μL/well, and RMPI-1640 medium (100 μL) was separately added to the positive control and the blank control wells. The 96-well plate was placed in the incubator and reacted at 37° C., 5% CO2 for 96 hours. After the reaction was completed, the 96-well plate was taken from the incubator and to each well was added CCK-8 (100 μL) (purchased from DOJINDO, Cat. No.: CK04-11). Then the 96-well plate was put back to the incubator and incubated for another 2 hours.

[3] = tested on: LPS-induced TNF-α secretion in THP-1 cells; assay: LPS-induced TNF-α secretion assay in THP-1 cells; assay type: cell-based; details: Homo sapiens, 24 hours, TNF-α ELISA
Protocol: The compound of Example 133 and the compound of Example 134 of the invention were tested in LPS-induced TNF-α secretion assay in THP-1 cells. Human THP-1 cells (purchased from ATCC, Cat. No.: TIB-202) were cultured in RPMI-1640 medium (purchased from Gibco, Cat. No.: 22440) containing 10% fetal bovine serum (purchased from Gibco, Cat. No.: 10099-141) and 0.05 mM of 2-mercaptoethanol (purchased from Gibco, Cat. No.: 21985). The THP-1 cells in logarithmic growth phase were seeded in a 96-well plate at 2×10^5 cells/well/100 μL. The test samples were diluted with RMPI-1640 medium to 4 folds of the final concentration (5-fold dilutions starting from 10 μM, setting 6 drug concentrations, and testing in replicate wells at each concentration). The diluted test samples were added to the test wells seeded with cells at 50 μL/well, and RMPI-1640 medium (50 μL) was separately added to positive control and negative control wells. The 96-well plate was placed in the incubator at 37° C., 5% CO2 and pre-incubated for 2 hours. […] After incubation in the incubator at 37° C., 5% CO2 for 24 hours, the cell culture supernatant was taken and determined for the content of TNF-α in the supernatant using a human TNF-α ELISA kit (purchased from DKW, Cat. No.: 12-1720-096).

Sequence of IRAK4 kinase (Q9NWZ3 whole entry): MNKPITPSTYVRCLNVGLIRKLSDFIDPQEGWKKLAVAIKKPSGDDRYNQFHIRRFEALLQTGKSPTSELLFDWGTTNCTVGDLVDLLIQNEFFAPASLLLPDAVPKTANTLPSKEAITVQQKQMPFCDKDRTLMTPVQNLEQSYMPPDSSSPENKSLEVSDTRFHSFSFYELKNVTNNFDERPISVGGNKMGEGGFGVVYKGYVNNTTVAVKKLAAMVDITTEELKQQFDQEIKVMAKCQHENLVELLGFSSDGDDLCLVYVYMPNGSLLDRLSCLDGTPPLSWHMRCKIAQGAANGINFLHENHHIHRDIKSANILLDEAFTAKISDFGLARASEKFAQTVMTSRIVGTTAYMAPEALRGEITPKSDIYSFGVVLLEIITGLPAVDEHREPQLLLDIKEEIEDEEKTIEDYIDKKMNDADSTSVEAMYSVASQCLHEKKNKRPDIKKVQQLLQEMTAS

IC50 [1] | IC50 [3] | Structure (SMILES) | IC50 [2]
≤ 100 nM |  | Cc1cc(Nc2nc(O[C@H]3CCOC3)c3c(ccn3-c3cnn(C)c3)n2)sn1 [Example 64] | 184 nM
≤ 100 nM | 161 nM | CNC(=O)c1csc(Nc2nc(O[C@H]3CCOC3)c3c(ccn3-c3cnn(C)c3)n2)c1 [Example 133] | 
≤ 100 nM |  | Cc1cc(Nc2nc(OC3CCOCC3)c3c(ccn3-c3cnn(C)c3)n2)sn1 [Example 74] | 479 nM
100 to 1000 nM |  | Cn1cc(-n2ccc3nc(Nc4ccc(N5CCOCC5)cc4)nc(O[C@H]4CCOC4)c32)cn1 [Example 118] | 
≤ 100 nM |  | Cn1cc(-n2ccc3nc(Nc4cc(C(=O)N5CCCCC5)cs4)nc(O[C@H]4CCOC4)c32)cn1 [Example 150] | 
100 to 1000 nM |  | CCNC(=O)c1csc(Nc2nc(OC3CCCC3)c3c(ccn3-c3cnn(C)c3)n2)c1 [Example 128] | 
≤ 100 nM |  | CNC(=O)c1cc(Nc2nc(NC3CCOCC3)c3c(ccn3-c3cnn(C)c3)n2)cs1 [Example 51] | 
100 to 1000 nM |  | Cc1cc(Nc2nc(OC3CCS(=O)(=O)CC3)c3c(ccn3-c3cnn(C)c3)n2)sn1 [Example 76] | 
≤ 100 nM |  | CCNC(=O)c1cc(Nc2nc(O[C@H]3CCOC3)c3c(ccn3-c3cnn(C)c3)n2)cs1 [Example 160] | 
≤ 100 nM |  | CCNC(=O)c1cc(Nc2nc(O[C@@H]3CCOC3)c3c(ccn3-c3cnn(C)c3)n2)cs1 [Example 158] | 
100 to 1000 nM |  | Cc1cc(Nc2nc(O[C@H]3CCOC3)c3c(ccn3-c3cnn(C)c3)n2)[nH]n1 [Example 84] | 
≤ 100 nM |  | Cc1cc(Nc2nc(NC3CCOCC3)c3c(ccn3-c3cnn(C)c3)n2)sn1 [Example 29] | 
100 to 1000 nM |  | Cc1cc(Nc2nc(NC(C)C)c3c(ccn3-c3cccnc3)n2)sn1 [Example 37] | 
100 to 1000 nM |  | Cc1cc(Nc2nc(N(C)C3CCOCC3)c3c(ccn3-c3cnn(C)c3)n2)sn1 [Example 53, N^4-methyl-N^2-(3-methylisothiazol-5-yl)-5-(1-methyl-1H-pyrazol-4-yl)-N^4-(tetrahydropyran-4-yl)-5H-pyrrolo[3,2-d]pyrimidine-2,4-diamine] | 
≤ 100 nM |  | Cn1cc(-n2ccc3nc(Nc4cnn(CCF)c4)nc(O[C@H]4CCOC4)c32)cn1 [Example 107] | 
100 to 1000 nM |  | Cc1cc(Nc2nc(OC3CCCC3)c3c(ccn3-c3cnn(C)c3)n2)sn1 [Example 63] | 
100 to 1000 nM |  | CNC(=O)c1ccc(Nc2nc(Nc3cc(C)ns3)nc3ccn(-c4cnn(C)c4)c23)cc1 [Example 31] | 

IC50 [1] | IC50 [3] | Structure (SMILES) | IC50 [2]
≤ 100 nM | 311 nM | CCNC(=O)c1csc(Nc2nc(O[C@H]3CCOC3)c3c(ccn3-c3cnn(C)c3)n2)c1 [Example 134] | 
100 to 1000 nM |  | Cc1cc(Nc2nc(OCc3ccccn3)c3c(ccn3-c3cnn(C)c3)n2)sn1 [Example 59] | 
1000 to 10000 nM |  | Cc1cc(Nc2nc(NC(C)C)c3c(ccn3-c3cccc(C(=O)O)c3)n2)sn1 [Example 35] | 
≤ 100 nM |  | CO[C@H]1CC[C@H](Nc2nc(Nc3cc(C)ns3)nc3ccn(-c4cnn(C)c4)c23)CC1 [Example 26] | 
100 to 1000 nM |  | Cc1cc(Nc2nc(NCCCN3CCOCC3)c3c(ccn3-c3cnn(C)c3)n2)sn1 [Example 11] | 
100 to 1000 nM |  | Cn1cc(-n2ccc3nc(Nc4cc5n(c4)CCNC5=O)nc(OC4CCOCC4)c32)cn1 [Example 175] | 
100 to 1000 nM |  | Cc1cc(Nc2nc(OC3CCOCC3)c3c(ccn3-c3cncnc3)n2)sn1 [Example 103] | 
100 to 1000 nM |  | Cc1cc(Nc2nc(N[C@H]3CCOC3)c3c(ccn3-c3cnn(C)c3)n2)sn1 [Example 21] | 
100 to 1000 nM |  | CCNC(=O)c1csc(Nc2nc(OC3CCCCC3)c3c(ccn3-c3cnn(C)c3)n2)c1 [Example 129] | 
≤ 100 nM |  | Cn1cc(-n2ccc3nc(Nc4cc(C(=O)NCCF)cs4)nc(OC4CCOCC4)c32)cn1 [Example 169] | 
100 to 1000 nM |  | Cn1cc(-n2ccc3nc(Nc4ccc5ncsc5c4)nc(O[C@H]4CCOC4)c32)cn1 [Example 125] | 
100 to 1000 nM |  | Cc1cc(Nc2nc(NC(C)C)c3c(ccn3-c3ccnc(O)c3)n2)sn1 [Example 41] | 
100 to 1000 nM |  | Cc1cc(Nc2nc(OC3CCSCC3)c3c(ccn3-c3cnn(C)c3)n2)sn1 [Example 75] | 
100 to 1000 nM |  | CCn1cc(-n2ccc3nc(Nc4cc(C)ns4)nc(OC4CCOCC4)c32)cn1 [Example 90] | 
100 to 1000 nM |  | COc1cncc(-n2ccc3nc(Nc4cc(C)ns4)nc(OC4CCOCC4)c32)c1 [Example 99] | 
100 to 1000 nM |  | COCCn1cc(-n2ccc3nc(Nc4cc(C)ns4)nc(OC4CCOCC4)c32)cn1 [Example 91] | 
